Measurements published in patent publication US20250034136A1 (Nimbus Wadjet, Inc., priority 2023, published 2025).
Like-named read-outs stand apart in the source and are kept apart here.

What was measured:
[1] = molecular target: WRN (BV08), human Werner helicase (Uniprot Q14191, amino acids 517-1235 with L1074F point mutation) (Homo sapiens (Human), UniProt Q14191, L1074F); experiment: WRN (BV08) ADP-Glo assay; assay type: biochemical; details: class symbols A-E, read-out: ADP-Glo_hWRN_IC50
[2] = tested on: p21 induction in HCT116 cells; experiment: p21 induction in HCT116 cells; assay type: cell-based; details: Homo sapiens, HCT-116, 24 h, read-out: P21_EC50
Summary of the method: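 EC50 from non-linear curve fit of p21 immunofluorescence (800 nm), with GAPDH (700 nm) read alongside. DMSO and a reference WRN inhibitor served as low and high controls. Cells (2,000/well) got 11 compound concentrations in duplicate for 24 h at 37 °C.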

[3] = HCT116 cells, 24 h compound incubation

Sequence of WRN (BV08), human Werner helicase (Uniprot Q14191, amino acids 517-1235 with L1074F point mutation) (Q14191 other isoform, or with tags, fused parts or gaps L1074F (already in the parent)): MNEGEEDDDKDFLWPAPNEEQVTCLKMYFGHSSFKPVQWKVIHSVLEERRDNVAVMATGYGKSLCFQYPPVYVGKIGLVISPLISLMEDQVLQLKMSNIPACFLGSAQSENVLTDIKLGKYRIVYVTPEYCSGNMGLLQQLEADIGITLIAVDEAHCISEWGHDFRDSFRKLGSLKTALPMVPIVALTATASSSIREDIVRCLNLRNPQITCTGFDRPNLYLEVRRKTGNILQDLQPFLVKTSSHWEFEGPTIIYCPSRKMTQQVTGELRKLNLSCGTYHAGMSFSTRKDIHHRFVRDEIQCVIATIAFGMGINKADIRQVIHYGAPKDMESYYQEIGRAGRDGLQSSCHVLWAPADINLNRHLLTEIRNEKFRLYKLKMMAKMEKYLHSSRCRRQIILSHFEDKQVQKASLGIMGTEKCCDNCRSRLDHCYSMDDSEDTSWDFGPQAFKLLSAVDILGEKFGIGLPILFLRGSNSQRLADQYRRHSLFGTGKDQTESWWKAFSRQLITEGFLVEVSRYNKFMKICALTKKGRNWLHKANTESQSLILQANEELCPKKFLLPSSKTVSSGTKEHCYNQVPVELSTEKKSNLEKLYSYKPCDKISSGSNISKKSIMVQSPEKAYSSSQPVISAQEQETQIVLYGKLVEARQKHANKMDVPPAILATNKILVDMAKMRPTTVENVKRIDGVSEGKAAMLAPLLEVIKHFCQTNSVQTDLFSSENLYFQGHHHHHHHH

IC50 [1]	EC50 [2, 3]	SMILES	EC50 [2]
0.05 to 0.1 µM	> 5 µM	CCc1c(N2CCN(C(=O)c3ncnc(C)c3O)CC2)c(=O)c2nc(C(F)F)cnc2n1CC(=O)Nc1ccc(C(F)(F)F)cc1Cl [I-13, N-(2-chloro-4-(trifluoromethyl)phenyl)-2-(2-(difluoromethyl)-6-ethyl-7-(4-(5-hydroxy-6-methylpyrimidine-4-carbonyl)piperazin-1-yl)-8-oxopyrido[2,3-b]pyrazin-5(8H)-yl)acetamide]	
0.005 to 0.05 µM	> 5 µM	CCc1c(N2CCN(C(=O)c3ncnc(C)c3O)CC2)c(=O)c2nc(Cl)cnc2n1CC(=O)Nc1ccc(C(F)(F)F)cc1Cl [I-19, N-(2-chloro-4-(trifluoromethyl)phenyl)-2-(2-chloro-6-ethyl-7-(4-(5-hydroxy-6-methylpyrimidine-4-carbonyl)piperazin-1-yl)-8-oxopyrido[2,3-b]pyrazin-5(8H)-yl)acetamide]	
0.005 to 0.05 µM	> 5 µM	CCc1c(N2CCN(C(=O)c3ncnc(C)c3O)CC2)c(=O)c2nc(NC)cnc2n1CC(=O)Nc1ccc(C(F)(F)F)cc1Cl [I-20, N-(2-chloro-4-(trifluoromethyl)phenyl)-2-(6-ethyl-7-(4-(5-hydroxy-6-methylpyrimidine-4-carbonyl)piperazin-1-yl)-2-(methylamino)-8-oxopyrido[2,3-b]pyrazin-5(8H)-yl)acetamide]	
0.005 to 0.05 µM	> 5 µM	CCc1c(N2CCN(C(=O)c3ncnc(C)c3O)CC2)c(=O)c2nc(O)cnc2n1CC(=O)Nc1ccc(C(F)(F)F)cc1Cl [I-24, N-(2-chloro-4-(trifluoromethyl)phenyl)-2-(6-ethyl-2-hydroxy-7-(4-(5-hydroxy-6-methylpyrimidine-4-carbonyl)piperazin-1-yl)-8-oxopyrido[2,3-b]pyrazin-5(8H)-yl)acetamide]	
0.05 to 0.1 µM	> 5 µM	CCc1c(N2CCN(C(=O)c3ncnc(C)c3O)CC2)c(=O)c2nc(CO)cnc2n1CC(=O)Nc1ccc(C(F)(F)F)cc1Cl [I-25, N-(2-chloro-4-(trifluoromethyl)phenyl)-2-(6-ethyl-7-(4-(5-hydroxy-6-methylpyrimidine-4-carbonyl)piperazin-1-yl)-2-(hydroxymethyl)-8-oxopyrido[2,3-b]pyrazin-5(8H)-yl)acetamide]	
0.005 to 0.05 µM	> 5 µM	CCc1c(N2CCN(C(=O)c3ncnc(C)c3O)CC2)c(=O)c2nc(N3CCCC3=O)cnc2n1CC(=O)Nc1ccc(C(F)(F)F)cc1Cl [I-27, N-(2-chloro-4-(trifluoromethyl)phenyl)-2-(6-ethyl-7-(4-(5-hydroxy-6-methylpyrimidine-4-carbonyl)piperazin-1-yl)-8-oxo-2-(2-oxopyrrolidin-1-yl)pyrido[2,3-b]pyrazin-5(8H)-yl)acetamide]	
0.005 to 0.05 µM	> 5 µM	CCc1c(N2CCN(C(=O)c3ncnc(C)c3O)CC2)c(=O)c2nc(NC(C)=O)cnc2n1CC(=O)Nc1ccc(C(F)(F)F)cc1Cl [I-31, 2-(2-acetamido-6-ethyl-7-(4-(5-hydroxy-6-methylpyrimidine-4-carbonyl)piperazin-1-yl)-8-oxopyrido[2,3-b]pyrazin-5(8H)-yl)-N-(2-chloro-4-(trifluoromethyl)phenyl)acetamide]	
0.005 to 0.05 µM	2 to 5 µM	CCc1c(N2CCN(C(=O)c3ncnc(C)c3O)CC2)c(=O)c2nc(/C=C3/CCOC3)cnc2n1CC(=O)Nc1ccc(C(F)(F)F)cc1Cl [I-35, N-(2-chloro-4-(trifluoromethyl)phenyl)-2-(2-((dihydrofuran-3(2H)-ylidene)methyl)-6-ethyl-7-(4-(5-hydroxy-6-methylpyrimidine-4-carbonyl)piperazin-1-yl)-8-oxopyrido[2,3-b]pyrazin-5(8H)-yl)acetamide]	

Second part, the compound before the results:

SMILES	IC50 [1]	EC50 [2, 3]	EC50 [2]
CCc1c(N2CCN(C(=O)c3ncnc(C)c3O)CC2)c(=O)c2nc(N(C)C)cnc2n1CC(=O)Nc1ccc(C(F)(F)F)cc1Cl [I-14, N-(2-chloro-4-(trifluoromethyl)phenyl)-2-(2-(dimethylamino)-6-ethyl-7-(4-(5-hydroxy-6-methylpyrimidine-4-carbonyl)piperazin-1-yl)-8-oxopyrido[2,3-b]pyrazin-5(8H)-yl)acetamide]	0.005 to 0.05 µM		0.5 to 2 µM
CCO/C=C/c1cnc2c(n1)c(=O)c(N1CCN(C(=O)c3ncnc(C)c3O)CC1)c(CC)n2CC(=O)Nc1ccc(C(F)(F)F)cc1Cl [I-15, (E)-N-(2-chloro-4-(trifluoromethyl)phenyl)-2-(2-(2-ethoxyvinyl)-6-ethyl-7-(4-(5-hydroxy-6-methylpyrimidine-4-carbonyl)piperazin-1-yl)-8-oxopyrido[2,3-b]pyrazin-5(8H)-yl)acetamide]	0.005 to 0.05 µM	< 0.5 µM	
CCc1c(N2CCN(C(=O)c3ncnc(C)c3O)CC2)c(=O)c2nc(C3CC3)c(C)nc2n1CC(=O)Nc1ccc(C(F)(F)F)cc1Cl [I-17, N-(2-chloro-4-(trifluoromethyl)phenyl)-2-(2-cyclopropyl-6-ethyl-7-(4-(5-hydroxy-6-methylpyrimidine-4-carbonyl)piperazin-1-yl)-3-methyl-8-oxopyrido[2,3-b]pyrazin-5(8H)-yl)acetamide]	0.005 to 0.05 µM	0.5 to 2 µM	
C=Cc1nc2c(=O)c(N3CCN(C(=O)c4ncnc(C)c4O)CC3)c(CC)n(CC(=O)Nc3ccc(C(F)(F)F)cc3Cl)c2nc1C [I-18, N-(2-chloro-4-(trifluoromethyl)phenyl)-2-(6-ethyl-7-(4-(5-hydroxy-6-methylpyrimidine-4-carbonyl)piperazin-1-yl)-3-methyl-8-oxo-2-vinylpyrido[2,3-b]pyrazin-5(8H)-yl)acetamide]	0.005 to 0.05 µM		0.5 to 2 µM
C/C=C/c1nc2c(=O)c(N3CCN(C(=O)c4ncnc(C)c4O)CC3)c(CC)n(CC(=O)Nc3ccc(C(F)(F)F)cc3Cl)c2nc1C [I-21, (E)N-(2-chloro-4-(trifluoromethyl)phenyl)-2-(6-ethyl-7-(4-(5-hydroxy-6-methylpyrimidine-4-carbonyl)piperazin-1-yl)-3-methyl-8-oxo-2-(prop-1-en-1-yl)pyrido[2,3-b]pyrazin-5(8H)-yl)acetamide]	0.005 to 0.05 µM	0.5 to 2 µM	
CCc1c(N2CCN(C(=O)c3ncnc(C)c3O)CC2)c(=O)c2nc(C(C)(C)O)c(C)nc2n1CC(=O)Nc1ccc(C(F)(F)F)cc1Cl [I-22, N-(2-chloro-4-(trifluoromethyl)phenyl)-2-(6-ethyl-7-(4-(5-hydroxy-6-methylpyrimidine-4-carbonyl)piperazin-1-yl)-2-(2-hydroxypropan-2-yl)-3-methyl-8-oxopyrido[2,3-b]pyrazin-5(8H)-yl)acetamide]	0.05 to 0.1 µM	> 5 µM	
C=C(C)c1nc2c(=O)c(N3CCN(C(=O)c4ncnc(C)c4O)CC3)c(CC)n(CC(=O)Nc3ccc(C(F)(F)F)cc3Cl)c2nc1C [I-23, N-(2-chloro-4-(trifluoromethyl)phenyl)-2-(6-ethyl-7-(4-(5-hydroxy-6-methylpyrimidine-4-carbonyl)piperazin-1-yl)-3-methyl-8-oxo-2-(prop-1-en-2-yl)pyrido[2,3-b]pyrazin-5(8H)-yl)acetamide]	0.005 to 0.05 µM		0.5 to 2 µM
CCc1c(N2CCN(C(=O)c3ncnc(C)c3O)CC2)c(=O)c2nc(OC(F)F)cnc2n1CC(=O)Nc1ccc(C(F)(F)F)cc1Cl [I-26, N-(2-chloro-4-(trifluoromethyl)phenyl)-2-(2-(difluoromethoxy)-6-ethyl-7-(4-(5-hydroxy-6-methylpyrimidine-4-carbonyl)piperazin-1-yl)-8-oxopyrido[2,3-b]pyrazin-5(8H)-yl)acetamide]	0.1 to 0.5 µM	> 5 µM	
CCc1c(N2CCN(C(=O)c3ncnc(C)c3O)CC2)c(=O)c2nc(C(F)F)c(C)nc2n1CC(=O)Nc1ccc(C(F)(F)F)cc1Cl [I-28, N-(2-chloro-4-(trifluoromethyl)phenyl)-2-(2-(difluoromethyl)-6-ethyl-7-(4-(5-hydroxy-6-methylpyrimidine-4-carbonyl)piperazin-1-yl)-3-methyl-8-oxopyrido[2,3-b]pyrazin-5(8H)-yl)acetamide]	0.005 to 0.05 µM	> 5 µM	
CCc1c(N2CCN(C(=O)c3ncnc(C)c3O)CC2)c(=O)c2nc(N(C)C)c(C)nc2n1CC(=O)Nc1ccc(C(F)(F)F)cc1Cl [I-29, N-(2-chloro-4-(trifluoromethyl)phenyl)-2-(2-(dimethylamino)-6-ethyl-7-(4-(5-hydroxy-6-methylpyrimidine-4-carbonyl)piperazin-1-yl)-3-methyl-8-oxopyrido[2,3-b]pyrazin-5(8H)-yl)acetamide]	0.005 to 0.05 µM		0.5 to 2 µM
CCc1c(N2CCN(C(=O)c3ncnc(C)c3O)CC2)c(=O)c2nc(N(C)C(C)=O)cnc2n1CC(=O)Nc1ccc(C(F)(F)F)cc1Cl [I-30, N-(2-chloro-4-(trifluoromethyl)phenyl)-2-(6-ethyl-7-(4-(5-hydroxy-6-methylpyrimidine-4-carbonyl)piperazin-1-yl)-2-(N-methylacetamido)-8-oxopyrido[2,3-b]pyrazin-5(8H)-yl)acetamide]	0.05 to 0.1 µM	> 5 µM	
CCc1c(N2CCN(C(=O)c3[nH]nc(C)c3O)CC2)c(=O)c2ncc(C)nc2n1CC(=O)Nc1ccc(C(F)(F)F)cc1Cl [I-32, N-(2-chloro-4-(trifluoromethyl)phenyl)-2-(6-ethyl-7-(4-(4-hydroxy-3-methyl-1H-pyrazole-5-carbonyl)piperazin-1-yl)-3-methyl-8-oxopyrido[2,3-b]pyrazin-5(8H)-yl)acetamide]	0.05 to 0.1 µM	> 5 µM	
CCc1c(N2CCN(C(=O)c3ccc4cn[nH]c4c3O)CC2)c(=O)c2ncc(C)nc2n1CC(=O)Nc1ccc(C(F)(F)F)cc1Cl [I-33, N-(2-chloro-4-(trifluoromethyl)phenyl)-2-(6-ethyl-7-(4-(7-hydroxy-1H-indazole-6-carbonyl)piperazin-1-yl)-3-methyl-8-oxopyrido[2,3-b]pyrazin-5(8H)-yl)acetamide]	0.005 to 0.05 µM	> 5 µM	
